Assay results from the OPERA property sets (Mansouri et al. 2018).

Row | Structure (SMILES) | logP
1 | CCOC(=O)C(C)n1nc2ccccc2n1 (centres undefined) | 2.38
2 | CC(CCC(N)=O)n1nc2ccccc2n1 (centres undefined) | 1.35
3 | CC(CC(=O)O)n1nnc2ccccc21 (centres undefined) | -0.2
4 | CCCCC(C(N)=O)n1nnc2ccccc21 (centres undefined) | 1.88
5 | CCCC(C(N)=O)n1nc2ccccc2n1 (centres undefined) | 1.75
6 | CC(C)(C(N)=O)n1nnc2ccccc21 | 0.76
7 | c1ccc2c(c1)nnn2C1CCCCC1 | 3.11
8 | CCCCC(C(N)=O)n1nc2ccccc2n1 (centres undefined) | 2.28
9 | CCOC(=O)C(C)n1nnc2ccccc21 (centres undefined) | 1.87
10 | CCCC(C(N)=O)n1nnc2ccccc21 (centres undefined) | 1.38
11 | CCCCC(C(=O)OCC)n1nc2ccccc2n1 (centres undefined) | 3.88
12 | CCCC(C(=O)OCC)n1nnc2ccccc21 (centres undefined) | 2.82
13 | CC(CCC(=O)O)n1nnc2ccccc21 (centres undefined) | 0.15
14 | c1ccc2nn(C3CCCCC3)nc2c1 | 3.63
15 | CC(C)(C(=O)O)n1nc2ccccc2n1 | 0.64
16 | CCOC(=O)CC(C)n1nnc2ccccc21 (centres undefined) | 2.27
17 | CC(C)(C(N)=O)n1nc2ccccc2n1 | 1.16
18 | c1ccc2c(c1)nnn2C1CCCC1 | 2.61
19 | CCC(C(N)=O)n1nnc2ccccc21 (centres undefined) | 0.88

Second part, the compound after the results:

Row | logP | Structure (SMILES)
20 | 2.7 | CCOC(=O)CC(C)n1nc2ccccc2n1 (centres undefined)
21 | -0.2 | CC(C)(C(=O)O)n1nnc2ccccc21
22 | 2.34 | CCOC(=O)C(CC)n1nnc2ccccc21 (centres undefined)
23 | 3.38 | CCCC(C(=O)OCC)n1nc2ccccc2n1 (centres undefined)
24 | 0.69 | CC(CCC(=O)O)n1nc2ccccc2n1 (centres undefined)
25 | 2.88 | CCOC(=O)C(CC)n1nc2ccccc2n1 (centres undefined)
26 | 0.86 | CC(C(N)=O)n1nc2ccccc2n1 (centres undefined)
27 | 1.25 | CCC(C(N)=O)n1nc2ccccc2n1 (centres undefined)
28 | 3.32 | CCCCC(C(=O)OCC)n1nnc2ccccc21 (centres undefined)
29 | 3.04 | c1ccc2nn(C3CCCC3)nc2c1
